Where “and” joins values, the source holds several entries; their conditions need not be identical. Equal entries are not always repeated. Calls of active or inactive are those of the source. The rule behind the calls is not given here.
Experiment: Yeast SKN7 toxicity growth rescue counterscreen, Saccharomyces cerevisiae, plate reader, dose confirmatory (AID 624258);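 note: growth read after three days of incubation at 30 °C; 0% = median of neutral control wells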
Settings: S. cerevisiae SKN7-toxicity growth rescue, plate reader; at 2.1 µM (top of the series)

Row | Structure (SMILES) | growth rescue activity
1 | CCc1ccc(C(C)NC(=S)NC2CCCCC2)cc1 (centres undefined) | -19.4% (inactive)

Same assay, conditions: S. cerevisiae SKN7-toxicity growth rescue, plate reader; at 6.8 µM (top of the series)

Row | Structure (SMILES) | growth rescue activity
2 | COc1cccc(C(C)=C2SC(=S)NC2=O)c1 | -39% (inactive)
3 | CC(C)(C)n1nc(Cc2cccc3ccccc23)c2c(N)ncnc21 | -49.1% (inactive)
4 | O=C(Nc1ccc(Cl)cc1)NC1CCCCC1Cc1ccco1 (centres undefined) | 76.3% (inactive)

Same assay, conditions: S. cerevisiae SKN7-toxicity growth rescue, plate reader; at 19.5 µM (top of the series)

Row | Structure (SMILES) | growth rescue activity
5 | CNc1ccc2oc(C[C@H]3O[C@@]4(CC[C@H]3C)O[C@H]([C@H](C)C(=O)c3ccc[nH]3)[C@H](C)C[C@H]4C)nc2c1C(=O)O | -78.1% (inactive)
6 | S=C(NCc1ccco1)Nc1ccc(Oc2ccc(Cl)cc2)cc1 | 26.1% (inactive)
7 | O=c1c(O)c(-c2ccccc2)oc2ccccc12 | -14.5% (inactive)
8 | CSC1SCC2C(=O)N(C)C(C(C)C)C(=O)OCC(NC(=O)c3cnc4ccccc4n3)C(=O)NC(C)C(=O)N(C)C1C(=O)N(C)C(C(C)C)C(=O)OCC(NC(=O)c1cnc3ccccc3n1)C(=O)NC(C)C(=O)N2C (centres undefined) | 8.43% (inactive)
9 | CC1=NN(C(N)=S)C(=O)C1N=Nc1cccc(Cl)c1C (centres undefined) | -42.1% (inactive)
10 | OCCN(CCO)c1cc2c3ccccc3ccc2c2ccccc12 | 9.38% (inactive)
11 | Oc1c(Cl)cc(Cl)cc1/C=N/NC(=S)NC1CC2C=CC1C2 (centres undefined) | -42.5% (inactive)
12 | O=C(c1ccc(-c2ccccc2)cc1)C1CCCN(C(=O)c2cncs2)C1 (centres undefined) | -59.8% (inactive)
13 | COc1cccc2c1C(=O)c1c(O)c3c(c(O)c1C2=O)C[C@@](O)(C(C)=O)C[C@@H]3O[C@H]1C[C@H](N)[C@H](O)[C@H](C)O1 | 23.7% (inactive)
14 | O=[N+]([O-])c1ccc2c(OCc3nnc(-c4ccccc4Br)o3)ncnc2c1 | 7.4% (inactive)
15 | Cc1cc(C)c(C(=O)CC(=O)c2cccnc2)c(C)c1 | -57.9% (inactive)
16 | CC(C)CSc1n[nH]c(=S)s1 | -51% (inactive)
17 | CCCCC(CC)c1nnc(NC(=O)c2cccs2)s1 (centres undefined) | -59.6% (inactive)
18 | O=C(COc1ccc(Cl)cc1)Nc1cccc(-c2ccc3nncn3n2)c1 | 13% (inactive)
19 | C=CCc1cccc(C=Nc2cc(Br)ccc2O)c1O | -45% (inactive)
20 | Cc1cccc(Nc2nc(-c3ccccn3)cs2)n1 | -59.7% (inactive)
21 | Cc1cccc2sc(NNC(=O)c3ccc(S(=O)(=O)N4CCCC(C)C4)cc3)nc12 (centres undefined) | -51.9% (inactive)
22 | CCCCNc1c(-c2cccc(-c3ccc(OC)cc3)c2)nc2ccc(C)cn12 | -90.6% (inactive)
23 | O=C(Nc1cccc(C(F)(F)F)c1)c1cccnc1NCCc1ccccc1 | -54.3% (inactive)
24 | COc1ccc(N(C(=O)c2ccncc2)S(=O)(=O)c2ccccc2)cc1 | -61.4% (inactive)
25 | Nc1cc([N+](=O)[O-])ccc1O | -8.46% (inactive)
26 | Clc1ccc(-c2n[nH]c3c2CCC3)cc1Cl | -54.5% (inactive)
27 | FC(F)(F)c1nc(SCc2ccc(Cl)cc2Cl)n[nH]1 | -80.8% (inactive)

Row | Structure (SMILES) | growth rescue activity
28 | Cc1nc2ccc(C(=O)NCc3ccc4c(c3)OCO4)cc2s1 | -2.94% (inactive)
29 | CC1CN(C(=O)c2cc([N+](=O)[O-])cc([N+](=O)[O-])c2)CC(C)O1 (centres undefined) | -63% (inactive)
30 | COc1cccc(Nc2nc(-c3cccs3)nc3ccccc23)c1 | -45.7% (inactive)
31 | Cc1cc(/C=C2\SC(=S)N(C)C2=O)c(C)n1-c1ccc(O)cc1 | -39.6% (inactive)
32 | Clc1ccccc1CN(Cc1ccco1)Cc1nnnn1C1CCCC1 | -4.89% (inactive)
33 | CC1(S(=O)(=O)O)CC(=O)c2ccccc2C1=O (centres undefined) | -12.1% (inactive)
34 | COCCn1c(=NC(=O)CSC(C)=O)sc2cc(F)ccc21 | 56.5% (inactive)
35 | N#Cc1ccc(Sc2ccccn2)c([N+](=O)[O-])c1 | 7.91% (inactive)
36 | Cc1oc2c(c1C(=O)c1ccccc1)C(=O)C(=O)c1ccccc1-2 | 16.8% (inactive)
37 | COc1ccccc1N1CCN(C(=O)CCNS(=O)(=O)c2ccc(Br)s2)CC1 | 9.41% (inactive)
38 | c1ccc(C(=NNc2nc3ccccc3s2)c2ccccn2)cc1 | -69.9% (inactive)
39 | CCCCCCC(Cl)(Cn1ccnc1)c1ccccc1 (centres undefined) | -69.6% (inactive)
40 | CCOC(=O)c1ccc(N2C(=O)CC(N3CCC(O)(c4ccc(Cl)cc4)CC3)C2=O)cc1 (centres undefined) | -16.1% (inactive)
41 | O=c1c(CO)cc(CO)cc(CO)c1O | -26.9% (inactive)
42 | c1ccc(Nc2nc(-c3ccccn3)cs2)cc1 | -0.973% (inactive)
43 | CCCCC(=O)NC(=S)NNC(=O)CCc1ccccc1 | -22.9% (inactive)
44 | CCCCOC(=O)/C=C/c1ccc(OC(=O)OC)c(OC(=O)OC)c1 | -13.9% (inactive)
45 | O=C(O)/C(=C\c1ccc(F)cc1)c1ccc(-c2ccccc2)cc1 | -66.8% (inactive)
46 | Cc1cc(C)c2sc(NNC(=O)c3ccc(S(=O)(=O)N4CCc5ccccc5C4)cc3)nc2c1 | -31.4% (inactive)
47 | CCCCCCCCCCCCCC(=O)NO | -69.6% (inactive)
48 | COc1cccc2c1C(=O)c1c(O)c3c(c(O)c1C2=O)CC(O)(C(C)=NNC(=O)c1ccc(Cl)c(Cl)c1)CC3OC1CC(N)C(O)C(C)O1 (centres undefined) | 23.8% (inactive)
49 | Fc1ccccc1COc1ccc(Br)cc1CNCc1ccncc1 | -7.59% (inactive)
50 | CCO/C=C1/C(=O)N(Cc2ccccc2)C(=O)c2ccccc21 | 2.35% (inactive)

Row | Structure (SMILES) | growth rescue activity
51 | CCn1c(-c2cc(-c3ccc(C)cc3)nc3ccccc23)n[nH]c1=S | -24.4% (inactive)
52 | COC(=O)COC(=O)c1ccccc1NC(=O)c1ccccc1 | -40.9% (inactive)
53 | COc1ccccc1-c1sc2cc3c(cc2c1C#Cc1cncn1C)OCO3 | -72% (inactive)
54 | C=CCN(CC=C)C(=S)NC(=O)c1ccc(C)c(Br)c1 | -13.6% (inactive)
55 | O=C(c1ccccc1)c1ccc(Cn2cc(-c3ccccc3)nn2)cc1 | 19.2% (inactive)
56 | C=C(C)COc1ccc(-c2[nH]ncc2-c2ccccc2)c(O)c1 | -93.2% (inactive)
57 | O=C(CC1(O)C(=O)Nc2cc(Cl)cc(Cl)c21)c1ccncc1 (centres undefined) | -23.3% (inactive)
58 | CCc1sc(C(=O)Nc2nc(-c3ccccn3)cs2)cc1C | -81% (inactive)
59 | N#Cc1c(N)nc(SCc2ccccc2)c(C#N)c1-c1ccco1 | -27.7% (inactive)
60 | CCn1c2ccc(C)cc2c2nc3cc(C(=O)O)ccc3nc21 | 18.7% (inactive)
61 | C[C@@]12CCC3[C@@](CCC4[C@@]3(C)CCC[C@@]4(C)C(=O)NCc3ccccc3)(CC1=O)C2 (some centres undefined) | -51.4% (inactive)
62 | Cc1cccc(N2CCN(C(=O)C3COc4ccccc4O3)CC2)c1C (centres undefined) | -49.4% (inactive)
63 | FC(F)(F)c1cccc(N2CCc3cn[nH]c32)c1 | -94.6% (inactive)
64 | Clc1ccc(COC(Cn2ccnc2)c2ccc(Cl)cc2Cl)c(Cl)c1 (centres undefined) | -74.2% (inactive) and -75.5% (inactive)
65 | Nc1cc2nc3ccccc3oc-2cc1=O | -51.6% (inactive)
66 | C/C(=N\NC(=O)COc1ccccc1-c1ccccc1)c1ccccn1 | -11.5% (inactive)
67 | Oc1c(C(Nc2cccc(C(F)(F)F)c2)c2ccncc2)ccc2cccnc12 (centres undefined) | -60.6% (inactive)
68 | Cn1c(N=Nc2ccccc2)nc2ccccc21 | -85.7% (inactive)
69 | COc1ccc(OCC(=O)NNC(=S)NC(=O)C2CCCCC2)cc1 | -64.8% (inactive)
70 | CCOC(=O)C1CCCN(C(=O)c2cc(-c3ccc(C)cc3)nc3ccccc23)C1 (centres undefined) | 25.9% (inactive)
71 | Cc1cc(NS(=O)(=O)c2ccc(C3CCCCC3)cc2)no1 | -38.7% (inactive)
72 | Nc1ncnc(Sc2ccccc2)c1[N+](=O)[O-] | 21.4% (inactive)
73 | S=C(NC1CCCC1)N1CCN(c2cccc(Cl)c2)CC1 | 13.6% (inactive)

Row | Structure (SMILES) | growth rescue activity
74 | Cc1ccsc1/C=C/c1ccc2cccc(O)c2n1 | -50.7% (inactive)
75 | O=C(Nc1nc(-c2ccccn2)cs1)c1ccc(Br)s1 | -44.2% (inactive)
76 | COc1cnc(-c2ccccn2)nc1Sc1ccc(C)cc1 | -65.7% (inactive)
77 | Cc1cc(SC#N)cc(C)c1NC(=O)CCl | -87% (inactive)
78 | O=S(=O)(c1c(Cl)sc(Cl)c1Br)N1CCCC1 | -25% (inactive)
79 | CCCCCCSc1ccc(-c2nc3ccccn3c2NCCCC)cc1 | -84.3% (inactive)
80 | O=C(COc1ccccc1F)Nc1nc(-c2ccccn2)cs1 | -57.2% (inactive)
81 | O=C(Nc1ccc(Br)c(C(F)(F)F)c1)c1ccccc1 | -78.2% (inactive)
82 | Cc1nn(CCC#N)c(N)c1C1(O)C(=O)Nc2c(Cl)cc(Cl)cc21 (centres undefined) | 12.9% (inactive)
83 | Oc1c(Br)cc(-c2ccccc2)cc1Br | -84.6% (inactive)
84 | O=[N+]([O-])c1cccc(C=NNc2ccc3ccccc3n2)c1O | -79.2% (inactive)
85 | CC1=CC(C)(C)N(S(=O)(=O)c2ccc(C)cc2)c2ccc(C)cc21 | -55.9% (inactive)
86 | Cc1onc(-c2ccccc2)c1C(=O)NC(=S)NNC(=O)c1ccc(O)cc1O | -33.4% (inactive)
87 | COc1cc([N+](=O)[O-])cc(/C=N/NC(=O)c2cncc(Br)c2)c1O | -13.3% (inactive)
88 | CSc1nc(-c2ccccc2F)c(C#N)c(=O)n1C | 47.9% (inactive)
89 | CCc1cc(-c2[nH]ncc2-c2ccc([N+](=O)[O-])cc2)c(O)cc1OC | -43.8% (inactive)
90 | C[n+]1c2cc(N)ccc2cc2ccc(N)cc21 | -24.4% (inactive) and -10% (inactive)
91 | C=CCNc1nc(-c2ccccn2)nnc1-c1ccccc1 | -28.2% (inactive)
92 | CC(Nc1cccc2ccccc12)C(=O)N/N=C/c1ccccn1 (centres undefined) | -11.5% (inactive)
93 | O=C(Nc1ccc(Cl)cc1C(=O)Nc1ccc(Br)cn1)c1ccco1 | -90.7% (inactive)
94 | CC1CCN(c2ccc3c(c2)S(=O)(=O)c2ccccc2C3=O)CC1 | -45.6% (inactive)

From PubChem BioAssay AID624258 (Broad Institute, 2012)
